Non-standard residues stand in square brackets, D forms with d. Residues, ends and D or L forms follow the SMILES beside them. ξ: configuration not given here. ξNMeBmt = C/C=C/C[C@@H](C)[C@@H](O)C(NC)C(=O)O; NMeL = CN[C@@H](CC(C)C)C(=O)O; NMeV = CN[C@H](C(=O)O)C(C)C; NMeA = CN[C@@H](C)C(=O)O; Abu = CC[C@H](N)C(=O)O; Sar = CNCC(=O)O
B1: Tat protein: Purified Tat protein (HIV-1) (protein, UniProt P04608 1-86, looked up)
Protein Tat: MEPVDPRLEPWKHPGSQPKTACTNCYCKKCCFHCQVCFITKALGISYGRKKRRQRRRAHQNSQTHQASLSKQPTSQPRGDPTGPKE

What was measured:
[1] = system: calcineurin (CN); conditions: complex with FKBP; cited from earlier work
[2] = system: CyPs; conditions: Sigal et al., 1991; cited from earlier work
[3] = system: T cell activation; conditions: Sigal et al., 1991; cited from earlier work
[4] = system: FKBP; conditions: Bierer et al., 1990; cited from earlier work
[5] = system: CyPB; test: Yeast GAL4 two hybrid, Gag/mutant fusions versus clone 4.1 (CyPB); format: cell-based, Human; conditions: versus 4.1 / CyPB
From the text: (§1) FIG. 2. The Effect of Mutations in Pr55^gag on the Ability of Gag-GAL4 Fusion Proteins to Activate β-Gal Activity in Yeast Cotransformed with GAL4-CyP Fusion Protein Expression Plasmids. Mutant forms of Pr55^gag were subcloned into pGAL4DB-HG. A schematic of the gag coding sequence is shown, and sequence numbers indicated the nucleotide position in the HXB2C provirus with respect to the 5' end of the 5' long terminal repeat. The names of the mutants indicate the nucleotide sequences deleted or the location of linker inserts. Coding sequences retained by the mutants are shown with a box. Linker insertion mutations are denoted with a triangle. Yeast strain GGY1::171, which carries a GAL1-lacZ fusion gene integrated into the chromosome, was cotransformed with each mutant plasmid against plasmid 2.1 and against plasmid 4.1. Colonies were replica-plated onto nitrocellulose filters and scored for β-gal activity by incubation with X-Gal. Open boxes or triangles indicate that when tested against either 2.1 or 4.1, the mutant had activity equivalent to that of the wild-type (WT) Pr55^gag.
(§2) To localize the portion of Gag that mediates binding to the CyPs, the effect on binding of mutations in the Pr55^gag coding sequence was examined. […] Each of these plasmids encodes a stable fusion protein of the expected size detected on Western blot (Luban et al., 1993). […]

[6] = system: CyPA; test: Yeast GAL4 two hybrid, Gag/mutant fusions versus clone 2.1 (CyPA); format: cell-based, Human; conditions: versus 2.1 / CyPA
From the text: as §1, §2

[7] = system: lymphocyte; conditions: Viscidi et al., 1989; cited from earlier work

| Molecule | binding to and inhibiting CN phosphatase activity as FKBP complex [1] | two hybrid interaction with CyPB (in words) [5] | two hybrid interaction with CyPA (in words) [6] | also measured |
| --- | --- | --- | --- | --- |
| C=CC[C@@H]1/C=C(\C)C[C@H](C)C[C@H](OC)[C@H]2O[C@@](O)(C(=O)C(=O)N3CCCC[C@H]3C(=O)O[C@H](/C(C)=C/[C@@H]3CC[C@@H](O)[C@H](OC)C3)[C@H](C)[C@@H](O)CC1=O)[C@H](C)C[C@@H]2OC [FK506] | capable of binding to and inhibiting the phosphatase activity of CN |  |  |  |
| C/C=C/C[C@@H](C)[C@@H](O)C1C(=O)N[C@@H](CC)C(=O)N(C)CC(=O)N(C)[C@@H](CC(C)C)C(=O)N[C@@H](C(C)C)C(=O)N(C)[C@@H](C)C(=O)N[C@@H](C)C(=O)N[C@H](C)C(=O)N(C)[C@@H](CC(C)C)C(=O)N(C)[C@@H](CC(C)C)C(=O)N(C)[C@@H](C(C)C)C(=O)N1C (stereo partly shown) [MeAla-CsA] (cyclo(A[dA][NMeL][NMeL][NMeV][ξNMeBmt][Abu][Sar][NMeL]V[NMeA])) |  |  |  | binding to CyPs [2]: bind to CyPs; suppression of T cell activation [3]: do not suppress T cell activation |
| CO[C@H]1C[C@@H]2CC[C@@H](C)[C@@](O)(O2)C(=O)C(=O)N2CCCC[C@H]2C(=O)O[C@H]([C@H](C)C[C@@H]2CC[C@@H](O)[C@H](OC)C2)CC(=O)[C@H](C)/C=C(\C)[C@@H](O)[C@@H](OC)C(=O)[C@H](C)C[C@H](C)/C=C/C=C/C=C/1C [Rapamycin] | not capable of binding CN |  |  | competition with FK506 for binding to FKBP [4]: competes with FK506 for binding to FKBP |
| MPMV pr76^gag: Gag polyprotein of Mason-Pfizer monkey virus |  | no detectable activity | no detectable activity |  |
| MoMLV Pr65^gag: Gag polyprotein of Moloney murine leukemia virus |  | no detectable activity | no detectable activity |  |
| B1 |  |  |  | antigen-stimulated lymphocyte proliferation [7]: inhibits |

— patent publication US5773225A, “Screening method for the identification of compounds capable of abrogation HIV-1 gag-cyclophilin complex formation” (The Trustees of Columbia University in the City of New York, priority 1994, dated 1998)
